Target: T1, hT1R1/hT1R3 umami receptor expressed in an HEK293 cell line (Homo sapiens, UniProt Q7RTX0+Q7RTX1)
T1 construct: expressed in transfected cells; host or cells: HEK293 cell line derivative, clone 1-17, expression induced with mifepristone
T1 sequence (Q7RTX1 21-841): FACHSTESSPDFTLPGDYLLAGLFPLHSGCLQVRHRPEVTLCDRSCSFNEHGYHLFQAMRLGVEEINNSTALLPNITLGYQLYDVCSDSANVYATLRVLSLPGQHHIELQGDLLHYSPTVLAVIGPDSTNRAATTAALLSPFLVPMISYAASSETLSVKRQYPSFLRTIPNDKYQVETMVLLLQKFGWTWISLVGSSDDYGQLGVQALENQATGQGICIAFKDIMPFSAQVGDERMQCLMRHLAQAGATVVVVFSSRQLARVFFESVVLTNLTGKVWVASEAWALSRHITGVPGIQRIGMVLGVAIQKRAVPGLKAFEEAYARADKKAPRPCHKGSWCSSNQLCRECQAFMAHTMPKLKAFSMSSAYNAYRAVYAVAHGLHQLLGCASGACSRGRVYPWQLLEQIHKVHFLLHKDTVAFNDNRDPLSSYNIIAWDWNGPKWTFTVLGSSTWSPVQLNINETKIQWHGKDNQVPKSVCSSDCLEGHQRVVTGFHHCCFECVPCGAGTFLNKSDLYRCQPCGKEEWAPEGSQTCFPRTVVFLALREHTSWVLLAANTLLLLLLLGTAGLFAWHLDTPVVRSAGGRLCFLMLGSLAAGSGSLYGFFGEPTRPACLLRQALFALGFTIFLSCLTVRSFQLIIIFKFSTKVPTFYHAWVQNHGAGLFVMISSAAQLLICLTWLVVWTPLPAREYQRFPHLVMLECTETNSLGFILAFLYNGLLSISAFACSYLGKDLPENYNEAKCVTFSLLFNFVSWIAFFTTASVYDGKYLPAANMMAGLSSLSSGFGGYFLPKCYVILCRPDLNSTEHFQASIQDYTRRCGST
T1 sequence (Q7RTX0 21-852): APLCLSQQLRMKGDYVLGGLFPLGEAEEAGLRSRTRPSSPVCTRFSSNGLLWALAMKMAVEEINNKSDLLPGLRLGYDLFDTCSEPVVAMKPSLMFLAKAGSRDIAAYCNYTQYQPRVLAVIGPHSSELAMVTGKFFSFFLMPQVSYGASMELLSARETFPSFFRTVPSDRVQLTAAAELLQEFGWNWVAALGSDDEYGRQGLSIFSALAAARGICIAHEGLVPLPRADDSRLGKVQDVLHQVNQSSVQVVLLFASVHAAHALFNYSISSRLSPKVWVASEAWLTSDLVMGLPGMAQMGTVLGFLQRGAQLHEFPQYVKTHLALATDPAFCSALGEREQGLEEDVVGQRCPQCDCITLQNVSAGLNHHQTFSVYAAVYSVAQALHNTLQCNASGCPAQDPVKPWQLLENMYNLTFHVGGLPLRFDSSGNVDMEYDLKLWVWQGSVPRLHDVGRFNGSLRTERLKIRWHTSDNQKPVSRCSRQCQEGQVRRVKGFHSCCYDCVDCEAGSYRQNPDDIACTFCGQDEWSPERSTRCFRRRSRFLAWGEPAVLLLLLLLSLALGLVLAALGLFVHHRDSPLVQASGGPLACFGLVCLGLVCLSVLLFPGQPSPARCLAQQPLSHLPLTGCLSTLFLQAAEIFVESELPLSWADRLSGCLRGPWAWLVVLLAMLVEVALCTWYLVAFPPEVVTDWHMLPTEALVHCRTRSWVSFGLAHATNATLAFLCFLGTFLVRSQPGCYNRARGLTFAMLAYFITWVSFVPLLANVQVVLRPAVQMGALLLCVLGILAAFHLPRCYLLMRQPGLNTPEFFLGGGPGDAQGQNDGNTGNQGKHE
Test: Umami taste enhancement assay (EC50 ratio vs. MSG)
Type: cell-based
Description: In umami taste enhancement activity assay experiments, which produce an “EC50 ratio” measurement of how effectively the amide compounds of the invention enhance the savory flavorant (typically MSG) already in a test solution. A series of measurements of the dose response is run in solutions comprising MSG alone, then a second dose response is run with MSG in combination with predetermined amounts of a candidate compound of Formula (I) at the same time.
In this assay, increasing concentrations of monosodium glutamate (ranging from 12 μM to 81 mM) were presented, in duplicates, in the presence or absence of a fixed concentration of the test compound. Typical compound concentrations tested were 30 μM, 10 μM, 3 μM, 1 μM, 0.3 μM, 0.1 μM and 0.03 μM. The relative efficacy of compounds of […] at enhancing the receptor was determined by calculating the magnitude of a shift in the EC50 for monosodium glutamate. Enhancement was defined as a ratio (EC50R) corresponding to the EC50 of monosodium glutamate, determined in the absence of the test compound, divided by the EC50 of monosodium glutamate, determined in the presence of the test compound.
Stated alternatively, “EC50 ratio” as compared to MSG is calculated based on the following definitions:
EC50 Ratio vs. MSG=EC50 (MSG)/EC50 (MSG+[Compound]) wherein “[compound]” refers to the concentration of the compound of Formula (I) used to elicit (or enhance or potentiate) the MSG dose response.
It should be noted that the EC50 ratio measured can depend somewhat on the concentration of the compound itself. Preferred savory enhancers would have a high EC50 Ratio vs. MSG at a low concentration of the compound used.

EC50 ratio (enhancement of the effectiveness of monosodium glutamate) (compound present at 0.03 μM)	EC50 ratio (enhancement of the effectiveness of monosodium glutamate) (compound present at 0.3 μM)	SMILES
6.92	–	CCCC(CCC)NC(=O)c1ccc2c(c1)OCO2 [Example 1, N-(heptan-4-yl)benzo[d][1,3]dioxole-5-carboxamide]
–	6.51	COc1ccc(CNC(=O)C(=O)NCCc2ccccn2)c(OC)c1 [Example 24, N-(2,4-Dimethoxy-benzyl)-N′-(2-pyridin-2-yl-ethyl)-oxalamide]

Reference: patent publication US8318947B2, “Comestible compositions comprising high potency savory flavorants, and processes for producing them” (Senomyx, Inc., priority 2006, dated 2012)
